Patent publication US11680047B2, “Enhanced erythropoiesis and iron metabolism” (FibroGen, Inc., priority 2003, dated 2023)

Experiments:
[1] = tested on: Transferrin Receptor (TFR2); test: Microarray gene expression in Hep3B cells: transferrin receptor 2; assay type: cell-based, human; settings: 2 μM
Description: (§1) Hep3B cells (ATCC No. HB-8064) were grown in DMEM containing 8% fetal bovine serum. Hep3B cells were seeded into 6-well culture dishes at ˜500,000 cells per well. After 8 hours, the media was changed to DMEM containing 0.5% fetal bovine serum and the cells were incubated for an additional 16 hours. Compound B or compound D was added to the cells (2 μM final concentration) and the cells were incubated for various times. Control cells (no compound treatment, addition of DMSO alone) were harvested at 0, 6 and 48 hours. Harvested cells were assessed for cell viability (GUAVA), or added to RNA extraction buffer (RNeasy, Qiagen) and stored at −20° C. for subsequent RNA purification. Replicate microarrays were generated using RNA isolated from replicate experiments conducted on different days. Total RNA was isolated from cells using the RNeasy kit (Qiagen).
(§2) RNA was precipitated in 0.3 M sodium acetate (pH 5.2), 50 ng/ml glycogen, and 2.5 volumes of ethanol for one hour at −20° C. Samples were centrifuged and pellets were washed with cold 80% ethanol, dried, and resuspend in water. Double stranded cDNA was synthesized using a T7-(dT)24 first strand primer (Affymetrix, Inc., Santa Clara Calif.) and the SUPERSCRIPT CHOICE system (Invitrogen) according to the manufacturer's instructions. The final cDNA was extracted with an equal volume of 25:24:1 phenol:chloroform:isoamyl alcohol using a PHASE LOCK GEL insert (Brinkman, Inc., Westbury N.Y.). The aqueous phase was collected and cDNA was precipitated using 0.5 volumes of 7.5 M ammonium acetate and 2.5 volumes of ethanol. Alternatively, cDNA was purified using the GENECHIP sample cleanup module (Affymetrix) according to the manufacturer's instructions.
(§3) Biotin-labeled cRNA was synthesized from the cDNA in an in vitro […] (IVT) reaction using a BIOARRAY HighYield RNA transcript labeling kit (Enzo Diagnostics, Inc., Farmingdale N.Y.) according to the manufacturer's instructions. Final labeled product was purified and fragmented using the GENECHIP sample cleanup module (Affymetrix) according to the manufacturer's instructions.
(§4) Hybridization cocktail was prepared by bringing […] probe to […] in 1× hybridization buffer (100 mM MES, 1 M [Na^+], 20 mM EDTA, 0.01% Tween 20), 100 µg/ml herring sperm DNA, 500 µg/ml acetylated BSA, 0.03 nM contol oligo B2 (Affymetrix), and 1×GENECHIP eukaryotic hybridization control (Affymetrix). The cocktail was sequentially incubated at 99° C. for 5 minutes and 45° C. for 5 minutes, and then centrifuged for 5 minutes. The Human Genome U133A array (Affymetrix) was brought to room temperature and then prehybridized with 1× hybridization buffer at 45° C. for 10 minutes with rotation. The buffer was then replaced with […] hybridization cocktail and the array was hybridized for 16 hours at 45° C. at 60 rpm with counter balance. Following hybridization, arrays were washed once with 6×SSPE, 0.1% Tween 20, and then washed and stained using R-phycoerythrin-conjugated streptavidin (Molecular Probes, Eugene Oreg.), goat anti-streptavidin antibody (Vector Laboratories, Burlingame Calif.), and a GENECHIP Fluidics Station 400 instrument (Affymetrix) according to the manufacturer's micro_1v1 protocol (Affymetrix). Arrays were analyzed using a GENEARRAY scanner (Affymetrix) and Microarray Suite software (Affymetrix).
(§5) The Human Genome U133A array (Affymetrix) represents all sequences in the Human Unigene database build 133 (National Center for Biotechnology Information, Bethesda Md.), including approximately 14,500 well-characterized human genes.
(§6) RNA quality was monitored by capillary electrophoresis (Agilent Bioanalyzer). Hybridization cocktails were prepared as described (Affymetrix), and hybridized to Affymetrix human U133A arrays containing 22,283 probe sets. Array performance was analyzed with Affymetrix MicroArray Suite (MAS) software and individual probe sets were assigned “present”, “marginal, and “absent” calls according to software defaults. […]

Ceruloplasmin (CP) = test: Microarray gene expression in Hep3B cells: ceruloplasmin; assay type: cell-based, human; settings: 2 μM
Description: as §1, §2, §3, §4, §5, §6

SMILES: O=C(O)CNC(=O)c1ncc2cc(Oc3ccccc3)ccc2c1O [Compound B, [(4-Hydroxy-7-phenoxy-isoquinoline-3-carbonyl)-amino]-acetic acid]
- Transferrin Receptor (TFR2) fold-increase in mRNA levels above control ([1]; 1 hr): 0.575 fold
- Transferrin Receptor (TFR2) fold-increase in mRNA levels above control ([1]; 3 hr): 0.558 fold
- Transferrin Receptor (TFR2) fold-increase in mRNA levels above control ([1]; 6 hr): 0.822 fold
- Transferrin Receptor (TFR2) fold-increase in mRNA levels above control ([1]; 12 hr): 1.253 fold
- Transferrin Receptor (TFR2) fold-increase in mRNA levels above control ([1]; 24 hr): 2.522 fold
- Transferrin Receptor (TFR2) fold-increase in mRNA levels above control ([1]; 48 hr): 4.169 fold
- Ceruloplasmin (CP) fold-increase in mRNA levels above control, first data point (Ceruloplasmin (CP); 1 hr): 1.142 fold
- Ceruloplasmin (CP) fold-increase in mRNA levels above control, second data point (Ceruloplasmin (CP); 1 hr): 0.946 fold
- Ceruloplasmin (CP) fold-increase in mRNA levels above control, first data point (Ceruloplasmin (CP); 3 hr): 1.123 fold
- Ceruloplasmin (CP) fold-increase in mRNA levels above control, second data point (Ceruloplasmin (CP); 3 hr): 0.955 fold
- Ceruloplasmin (CP) fold-increase in mRNA levels above control, first data point (Ceruloplasmin (CP); 6 hr): 1.555 fold
- Ceruloplasmin (CP) fold-increase in mRNA levels above control, second data point (Ceruloplasmin (CP); 6 hr): 1.103 fold
- Ceruloplasmin (CP) fold-increase in mRNA levels above control, first data point (Ceruloplasmin (CP); 12 hr): 2.366 fold
- Ceruloplasmin (CP) fold-increase in mRNA levels above control, second data point (Ceruloplasmin (CP); 12 hr): 2.507 fold
- Ceruloplasmin (CP) fold-increase in mRNA levels above control, first data point (Ceruloplasmin (CP); 24 hr): 5.136 fold
- Ceruloplasmin (CP) fold-increase in mRNA levels above control, second data point (Ceruloplasmin (CP); 24 hr): 4.909 fold
- Ceruloplasmin (CP) fold-increase in mRNA levels above control, first data point (Ceruloplasmin (CP); 48 hr): 5.82 fold
- Ceruloplasmin (CP) fold-increase in mRNA levels above control, second data point (Ceruloplasmin (CP); 48 hr): 4.678 fold
